Results reported in patent publication US5204361A, “Method for treating laminitis in equine livestock” (priority 1988, dated 1993).

Experiments:
[1] = system: caecal and large colon digesta of horses; test: Experiment 2 Part 4: fresh digesta of horses fed pelleted diet with virginiamycin; assay type: in vivo, horse; conditions: for pH, fresh digesta / L-lactate, fresh digesta / Total VFA, fresh digesta / % Acetate, fresh digesta / % Butyrate, fresh digesta / % Iso-valerate, fresh digesta / % Propionate, fresh digesta / % Valerate, fresh digesta: n = 5, mean; for % Acetate, fresh digesta / % Butyrate, fresh digesta / % Iso-valerate, fresh digesta / % Propionate, fresh digesta / % Valerate, fresh digesta: molar percentage, feed with virginiamycin
Method: (§1) A total of ten horses were used for this experiment. Five horses were offered 5 kg of a pelleted mixture (ground wheat 92.5%, ground lucerne chaff 5% and `Stafac 20` 2.5% to supply approximately 2.5 g virginiamycin. A further 5 horses were offered the same feed but without virginiamycin. Samples of caecal and large colon digesta were taken for analysis of pH, VFA, virginiamycin and L-lactate. Samples were also prepared as described above with buffer solution and incubated (1 flask/sample) with cornstarch (15 mg/ml diluted digesta). Following 20 hours incubation samples were taken for analysis of L-lactate and pH.

[2] = system: horses given controlled doses of ground wheat; test: Experiment 3: in vivo action of virginiamycin in horses dosed with ground wheat; set-up: species or system horse
Method: These animals were pre-dosed with virginiamycin by feeding 2 kg of a mixture containing: chaff 1225 g, sugar 225 g, water 450 g and `Stafac 20` 100 g. This provided approximately 2 g virginiamycin/d. The sugar was first dissolved in water before adding the `Stafac 20` and mixing it into a uniform suspension. This mixture was then added to the chaff and mixed for 20 minutes. When this feed was not eaten on the second day on which it was offered the animals were dosed with 125 g `Stafac 20`/head (2.5 g virginiamycin/head), via a stomach tube. On the third day of the experiment the animals were given a dose of ground wheat. This provided approximately 6 mg virginiamycin/kg liveweight. The wheat was mixed in a slurry with water and given in two equal amounts with an interval of about 2 hours between doses. The animals were examined and sampled at 8 hour intervals over a period of 48 hours as described for Experiment 1 above. Times were taken from the first dose of wheat.
Eight horses were used for this experiment. Four animals received virginiamycin and 4 animals received the same treatment but without virginiamycin. The animals which received virginiamycin were pre-dosed for two days prior to administration of the wheat slurry by feeding 640 g of a mixture containing lucerne chaff 495 g, sugar 16.5 g, cornflour 8.3 g, water 115 g, `Stafac 500` 4.95 g. This provided approximately 2.48 g virginiamycin/d. This was prepared in the following way. An evenly mixed slurry of the sugar, cornflour, water and `Stafac 500` was prepared and this was added to the lucerne chaff before mixing thoroughly in a cement mixer. The control animals received 640 g of lucerne chaff without any additive. The doses of wheat administered on the third day provided 12 grams of ground wheat/kg liveweight. Again this was given in two equal amounts with an interval between doses. The wheat given to the horses on the virginiamycin treatment contained `Stafac 20` (20/kg wheat). This provided approximately 4.8 mg virginiamycin/kg liveweight. The animals were examined and sampled at 8 hour intervals over a period of 48 hours as described above for Experiment 1.

[3] = system: caecal and large colon digesta; test: Experiment 2 Part 4: digesta of virginiamycin-fed horses incubated with cornstarch; assay type: cell-based, horse; conditions: for L-lactate, incubated digesta / pH, incubated digesta: digesta of virginiamycin-fed horses incubated 20 hours with cornstarch 15 mg/ml, n = 5, mean
Method: Digesta was taken from the caecum and large colon from recently slaughtered animals and was filtered through nylon gauze (approximately 60 micron apertures). The fluid was diluted 1:1 with a buffer solution described by Bales et al. (1976) and incubated with wheat "corn starch" (with or without antibiotics) at 37° for 16 to 20 hours. Aliquots of digesta diluted with buffer (50 ml) were added to 100 ml conical flasks. The flasks were flushed with carbon dioxide before being sealed with a tightly fitting rubber cap. A 21 gauge needle was inserted through the rubber seal in order to allow gas to escape during the fermentation. On removal from the incubator sub-samples were immediately taken to measure L-lactic acid concentration and pH. For each treatment or level of antibiotic three replicate incubation flasks were used.
as §1

[4] = system: caecal/large colon digesta; test: Experiment 2 Part 5: efficacy of tylosin relative to virginiamycin, digesta incubated with glucose; assay type: cell-based, horse; conditions: digesta incubated with glucose, 37°, 20 hours, mean
Method: An in vitro fermentation experiment was conducted to determine the efficacy of tylosin relative to virginiamycin. Samples of strained caecal and large colon digesta (16 ml) were incubated with glucose solution (60 ug/ml) (4 ml) and varying concentrations of either tylosin or virginiamycin representing […], 2.0, 4.0 ug of tylosin or virginiamycin per ml. The 25 ml containers were incubated at 37° for 20 hours. There were three replicates per treatment.

[5] = Caecum, feed with virginiamycin approx 14 hours before slaughter
[6] = Colon, feed with virginiamycin approx 14 hours before slaughter

virginiamycin
pH, fresh digesta ([1]; Caecum, feed with approx 2.5 g virginiamycin approx 14 hours before slaughter): 6.2 | L-lactate, fresh digesta [1, 5]: 10.3 mmol/L | Total VFA, fresh digesta [1, 5]: 76.1 mmol/L | % Acetate, fresh digesta ([1]; Caecum): 50.3% | % Butyrate, fresh digesta ([1]; Caecum): 3.2% | % Iso-valerate, fresh digesta ([1]; Caecum): 0.0% | % Propionate, fresh digesta ([1]; Caecum): 46.5% | % Valerate, fresh digesta ([1]; Caecum): 0.5% | L-lactate, fresh digesta [1, 6]: 10.2 mmol/L | Total VFA, fresh digesta [1, 6]: 118.7 mmol/L | pH, fresh digesta [1, 6]: 6.0 | % Acetate, fresh digesta ([1]; Colon): 52.1% | % Butyrate, fresh digesta ([1]; Colon): 3.6% | % Iso-valerate, fresh digesta ([1]; Colon): 1.5% | % Propionate, fresh digesta ([1]; Colon): 44.3% | % Valerate, fresh digesta ([1]; Colon): 0.2% | molar percentage of propionate versus control animals ([1]; fresh digesta): more than twice | molar percentages of acetate, butyrate, isovalerate and valerate versus control animals ([1]; fresh digesta): reduced | pH of the digesta in the caecum or large colon versus control animals ([1]; fresh digesta): no significant effect | total concentration of VFA versus control animals ([1]; fresh digesta, p<0.001): lower total concentration of VFA | concentration of L-lactate in the caecal and large colon digesta versus control animals ([1]; fresh digesta, p<0.05): higher | signs of lameness ([2]; 5 animals dosed with virginiamycin, ground wheat, 48 hours, 3 of 4 controls Obel grade 2): none showed any signs of lameness | faecal pH ([2]; 48 hours after wheat slurry, FIG. 4(b)): no significant change | death after wheat slurry with virginiamycin ([2]; Part 1, 2 horses, approx 6 mg virginiamycin/kg liveweight, build up of gas in the caecum): one died after 16 hours | parameters associated with acidosis (blood bicarbonate and pH, and faecal pH) ([2]; after wheat slurry): within normal limits | blood L-lactate versus control ([2]; at 8 and 16 hours after wheat, FIG. 3): significantly higher | blood D-lactate ([2]; at 16 hours after wheat, FIG. 3): only a minor increase | blood L-lactate versus control ([2]; by 40 hours after wheat, FIG. 3): higher (p<0.05) in the control animals | blood D-lactate level ([2]; in vivo): maintained blood D-lactate at a low level | development of laminitis following excessive carbohydrate intake ([2]; in vivo): protected horses against the development of laminitis | gas produced during the initial rapid fermentation of the carbohydrate ([2]; in vivo): more gas was produced | heart rate versus control horses ([2]; in vivo): higher than that of the control horses | ill effects of the dose, second animal ([2]; in vivo): no ill effects | reduction in lameness versus control ([2]; virginiamycin prior to and in conjunction with the wheat slurry): significant (p<0.05) reduction | L-lactate, incubated digesta ([3]; Caecum): 5.5 mmol/L | pH, incubated digesta ([3]; Caecum): 5.2 | L-lactate, incubated digesta ([3]; Colon): 1.8 mmol/L | pH, incubated digesta ([3]; Colon): 5.3 | lactic acid produced following incubation with cornstarch versus controls ([3]; digesta from animals that had consumed virginiamycin, p<0.001): significantly less | pH in the incubated digesta versus controls ([3]; digesta from animals that had received virginiamycin): higher pH | L-lactate ([4]; antibiotic 0.50 μg/ml): 25 mmol/L | L-lactate ([4]; antibiotic 2.00 μg/ml): 11.0 mmol/L | L-lactate ([4]; antibiotic 4.00 μg/ml): 7.7 mmol/L
